The results in this text go back to patent US10538555B2, “Macrocyclic inhibitors of the PD-1/PD-L1 and CD80(B7-1)/PD-L1 protein/protein interactions” (BRISTOL-MYERS SQUIBB COMPANY, priority 2014, dated 2020).

Where a SMILES comes first, the peptide text is derived from it. Bridges are numbered along the chain shown (N, C = ends). [ ]: non-standard residue; d: D form. ξ: configuration not given here. Trp(1-CH2COOH) = N[C@@H](Cc1cn(CC(=O)O)c2ccccc12)C(=O)O; Trp(βS-Me) = C[C@@H](c1c[nH]c2ccccc12)[C@H](N)C(=O)O; Phe(3,4,5-F3) = N[C@@H](Cc1cc(F)c(F)c(F)c1)C(=O)O; NMePhe(4-F) = CN[C@@H](Cc1ccc(F)cc1)C(=O)O; Hyp = O=C(O)[C@@H]1C[C@@H](O)CN1; NMeF = CN[C@@H](Cc1ccccc1)C(=O)O; NMeNle = CCCC[C@H](NC)C(=O)O; dPip = O=C(O)[C@H]1CCCCN1; NMeA = CN[C@@H](C)C(=O)O; Orn = NCCC[C@H](N)C(=O)O; Dab = NCC[C@H](N)C(=O)O; Dap = NC[C@H](N)C(=O)O; ξP = O=C(O)C1CCCN1; Sar = CNCC(=O)O

The target in this test is T1, Human PD-L1/PD-1 (Homo sapiens, UniProt Q9NZQ7).
T1 construct: TVMV protease cleavage site (C); made in house; host or cells: HEK293T cells
T1 sequence (Q9NZQ7 with tags, fused parts or gaps): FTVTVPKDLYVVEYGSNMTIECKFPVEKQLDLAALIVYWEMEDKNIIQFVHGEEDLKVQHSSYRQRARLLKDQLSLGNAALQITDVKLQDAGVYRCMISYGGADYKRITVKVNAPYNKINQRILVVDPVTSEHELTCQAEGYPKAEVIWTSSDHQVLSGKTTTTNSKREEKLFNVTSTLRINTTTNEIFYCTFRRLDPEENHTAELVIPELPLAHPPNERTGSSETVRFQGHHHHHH
As to the kind of experiment: HTRF Human PD-L1/PD-1 binding assay (PD-1-Ig/PD-L1-His). As to conditions: PD-L1-His 10 nM, PD-1-Ig 20 nM; class symbol; read-out: HTRF Human PD-L1/PD-1 Binding Assay IC50 Range. The essentials: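 Step 1: compound with PD-L1-His (10 nM final), 15 min. Step 2: PD-1-Ig (20 nM final), 15 min. Step 3: Eu-cryptate anti-Ig (1 nM) plus APC anti-His (20 nM), 30 min equilibration. Signal taken as 665 nm/620 nm ratio.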
In general terms: TR-FRET usually uses a lanthanide donor and a delayed reading to cut background.

Turning to `CCCC[C@H]1C(=O)N(C)[C@@H](CCCC)C(=O)N[C@@H](CCCN)C(=O)N[C@H](C(=O)NCC(N)=O)CSCC(=O)N[C@@H](Cc2ccc(OC)cc2)C(=O)N(C)[C@@H](C)C(=O)N[C@@H](CCN)C(=O)N2CCC[C@H]2C(=O)N[C@@H](CN)C(=O)N[C@@H](CCCCN)C(=O)N2C[C@H](O)C[C@H]2C(=O)N[C@@H](Cc2c[nH]c3ccccc23)C(=O)N[C@@H](CCN)C(=O)N[C@@H](Cc2c[nH]c3ccccc23)C(=O)N1C` [Example 7103] ({CH2CO}-Y(Me)[NMeA][Dab]P[Dap]K[Hyp]W[Dab]W[NMeNle][NMeNle][Orn]CG-NH2; thioether N-14), the IC50 fell in the range of 10 to 99.9 nM.

For the compound `CCCC[C@H]1C(=O)N(C)[C@@H](CCCC)C(=O)N[C@@H](CCC(=O)O)C(=O)N[C@H](C(=O)NCC(N)=O)CSCC(=O)N[C@@H](Cc2ccc(O)cc2)C(=O)N(C)[C@@H](C)C(=O)N[C@@H](CC(N)=O)C(=O)N2CCCC2C(=O)N[C@@H](CO)C(=O)N[C@@H](CC(C)C)C(=O)N2C[C@H](O)C[C@H]2C(=O)N[C@@H](Cc2c[nH]c3ccccc23)C(=O)N[C@@H](CO)C(=O)N[C@@H](Cc2cn(CC(=O)O)c3ccccc23)C(=O)N1C` (stereo partly drawn) [Example 6250] ({CH2CO}-Y[NMeA]N[ξP]SL[Hyp]WS[Trp(1-CH2COOH)][NMeNle][NMeNle]ECG-NH2; thioether N-14), the IC50 fell in the range of 1 to 9.9 nM.

As for `CCCC[C@H]1C(=O)N(C)[C@@H](CCCC)C(=O)N[C@@H](CC(C)C)C(=O)N[C@H](C(=O)NCC(N)=O)CSCC(=O)N[C@@H](Cc2ccc(OC)cc2)C(=O)N(C)[C@@H](C)C(=O)N[C@@H](CC(N)=O)C(=O)N2CCC[C@H]2C(=O)N[C@@H](CO)C(=O)N[C@@H](CCC(N)=O)C(=O)N2C[C@H](O)C[C@H]2C(=O)N[C@@H](Cc2c[nH]c3ccccc23)C(=O)N[C@@H](CO)C(=O)N[C@@H](Cc2cn(CC(=O)O)c3ccccc23)C(=O)N1C` [Example 7142] ({CH2CO}-Y(Me)[NMeA]NPSQ[Hyp]WS[Trp(1-CH2COOH)][NMeNle][NMeNle]LCG-NH2; thioether N-14), the IC50 lay within 1 to 9.9 nM.

Regarding `CCCC[C@H]1C(=O)N2CCC[C@@H]2C(=O)N[C@@H](CC(=O)O)C(=O)N[C@@H](C(C)C)C(=O)N(C)[C@@H](Cc2ccccc2)C(=O)N[C@@H](Cc2ccc(O)cc2)C(=O)N2CCCC[C@@H]2C(=O)N[C@H](CCC(=O)O)C(=O)N[C@@H](Cc2ccc(O)cc2)C(=O)N[C@@H](CCCN)C(=O)N[C@H](C(=O)NCC(N)=O)CSCC(=O)N[C@@H](Cc2cc(F)c(F)c(F)c2)C(=O)N(C)[C@@H](Cc2ccc(F)cc2)C(=O)N1C` [Example 10610] ({CH2CO}-[Phe(3,4,5-F3)][NMePhe(4-F)][NMeNle][dP]DV[NMeF]Y[dPip][dE]Y[Orn]CG-NH2; thioether N-13), the IC50 fell in the range of 100 to 990 nM.

Turning to `CCCC[C@H]1C(=O)N(C)CC(=O)N[C@@H](CC(=O)O)C(=O)N[C@@H]([C@@H](C)O)C(=O)N(C)[C@@H](Cc2ccccc2)C(=O)N[C@@H](Cc2ccc(O)cc2)C(=O)N(C)CC(=O)N[C@@H](Cc2c[nH]c3ccccc23)C(=O)N[C@@H](Cc2ccc(O)cc2)C(=O)N[C@@H](CC(C)C)C(=O)N[C@H](C(=O)NCC(N)=O)CSCC(=O)N[C@@H](Cc2ccccc2)C(=O)N(C)[C@@H](Cc2ccccc2)C(=O)N1C` [Example 3225] ({CH2CO}-F[NMeF][NMeNle][Sar]DT[NMeF]Y[Sar]WYLCG-NH2; thioether N-13), the IC50 fell in the range of 1 to 9.9 nM.

In the case of `CCCC[C@H]1C(=O)N(C)[C@@H](CCCC)C(=O)N[C@@H](C)C(=O)N[C@H](C(=O)NCC(N)=O)CSCC(=O)N[C@@H](Cc2ccc(O)cc2)C(=O)N(C)[C@@H](C)C(=O)N[C@@H](CC(=O)O)C(=O)N2CCC[C@H]2C(=O)N[C@@H](Cc2c[nH]cn2)C(=O)N[C@@H](CCC(N)=O)C(=O)N2C[C@H](O)C[C@H]2C(=O)N[C@@H]([C@@H](C)c2c[nH]c3ccccc23)C(=O)N[C@@H](CO)C(=O)N[C@@H](Cc2c[nH]c3ccccc23)C(=O)N1C` [Example 10553] ({CH2CO}-Y[NMeA]DPHQ[Hyp][Trp(βS-Me)]SW[NMeNle][NMeNle]ACG-NH2; thioether N-14), the IC50 lay within 1 to 9.9 nM.
